Assay results taken from patent publication US8940865B2, “Myocardial peptide, preparation method and uses thereof” (Dalian Zhen-Ao Pharmaceutical Co, Ltd., priority 2008, dated 2015).

What was measured:
[1] = test system: ischemia/reperfusion damaged rat; experiment: Preventive administration, ischemia/reperfusion (LAD ligation) rat model; type: in vivo, SD rat; conditions: preventive i.v. 30 min before ligation, Dosage 1.0 mg/kg
Method: 70 SD rats (250˜300 g per rat) were taken, wherein, 60 rats were divided into 6 groups evenly and randomly according to weight, every 10 of each group, the remains are kept for replacement of dead animals of each group.
Normal Control Group: carrying out sham operation, threading a silk suture through the left anterior descending coronary artery (LAD) without ligation;
Model Group: intravenous injecting saline solution of 5 ml/kg 30 minutes before ligation, and the preparation of hypoxia/reoxygenation model is the same as Normal Control Group;
Positive Control Group: intravenous injecting Verapamil of 1 ml/kg 30 min before ligation, preparation of the hypoxia/reoxygenation model is the same as Normal Control Group. […]
Preparation of the Model:
(§1) Intraperitoneal injecting 6% Urethane with 20 ml/kg to anaesthetize the animal, fixing the animal on operating table in supine position; being connected with the electrocardiograph to detect the limb II lead electrocardiogram, tracheal intubating and connecting the animal with respirators, taking continuous positive end-expiratory pressure with tidal volume of 6 ml/200 g, frequency of 55/min and breathing ratio of 2:1. Carrying out thoracotomy on the gap between the forth and the fifth ribs of the left border of sternum, separating the ribs and removing the pericardium. Ligating at the left anterior descending coronary artery by using 6/0 silk suture by the sign of left auricle lower margin, and setting a piece of polyethylene pipe with diameter of 1 mm between the ligation silk suture and blood vessel. Ligating the silk suture to press the left anterior descending coronary artery by the polyethylene pipe and cause myocardial ischemia. Taking part of myocardium becoming grey and electrocardiogram S-T segment raising as the sign of that the left anterior descending coronary artery is ligated successfully. Taking out the polyethylene pipe carefully to cause the reperfusion. Verifying the success of reoxygenation by reactive hyperemia of ischemia area and the descending of the raised S-T segment by ½. Reoxygenation for 30 minutes, then sampling blood from abdominal aorta to prepare serum which is used to measure the biochemical index (measuring the content of CK, LDH, MDA, SPD according to the Reagent kits Instruction).
(§2) Rat's heart was taken and after being blooded, the residual blood in the ventricle was cleaned by normal saline to weight the weight of whole heart. Fat was removed, the heart was crosscut into 4˜5 pieces and was put into a tube, to be carried out NBT dye at 37° C. (dying the normal tissue rather than the ischemic tissue), taking photographs. The ischemic area of the myocardium was cut to take a weighing, and then the myocardial infarct size (MIS) was calculated by the ratio of weight of the ischemic area of the myocardium to whole heart weight, which was present by percentage.

[2] = test system: ischemia/reperfusion damaged rat; experiment: Therapeutic administration, ischemia/reperfusion (LAD ligation) rat model; type: in vivo, SD rat; conditions: therapeutic i.v. 5 minutes after ligation, Dosage 1.0 mg/kg
Method: as §1, §2
The drug was intravenously injured on the tail 5 minutes after ligation of LAD, then reperfusion was carried out for 30 min 30 minutes after ligation of LAD. Heart was taken after sampling blood from abdominal aorta. The biochemical index and the myocardial infarction size were measure by using the above method.

[3] = test system: primary culture myocardium cell damaged by adriamycin; experiment: Effect of CMPC against adriamycin injury of primary culture myocardium cell (MTT); type: cell-based, Neonatal SD rat
Method: Remove the fibroblast through differential adhesion and chemistry method, and inoculate myocardium cell on the 96-well plates.
2.1.2 The Against Function of Cmpc to Injury of Adriamycin to Primary Culture Myocardium Cell.
Cell culture method is the same as 2.1.1
Preparation of model: Blank Control Group: cultivating myocardium cell with DMEM-H-15;
Model Group: adding 1 mg/L adriamycin, washing the plate with DMEM-H-15 two times after being cultivated for 1 h, adding DMEM-H-15 for cultivation;
Protective rate=(Ax−Amodel)/(Acontrol−Amodel)×100%;
(Ax, Amode, Acontrol respectively represent Absorbance value of Drug administration groups, Model Group and Blank control group.

[4] = test system: primary culture myocardium cell damaged by hypoxia/reoxygenation; experiment: Anti-hypoxia/reoxygenation injury effect on primary culture myocardium cell (MTT); type: cell-based, Neonatal SD rat
Source text: Take ventricle from Neonatal SD rat, wash with D-Hank's and cut to small pieces, digest with collagenase II to obtain the myocardium cell and fibroblast, which are cultivated with high glucose DMEM (dmem-h-15) culture medium containing 15% fetal bovine serum. Remove the fibroblast through differential adhesion and chemistry method, and inoculate myocardium cell on the 96-well plates.
2.1.3 Anti-Hypoxia/Reoxygenation Injury Effect of CMPC to Primary Culture Myocardium Cell.
Cell cultivation method is the same as that in 2.1.1
Preparation of model: Preparing the model by using the myocardium cell cultured for 48˜72 h, dividing the cell on the culture plate to following groups: Control Group, Model Group, Verapamil Group (2, 0.4, 0.08 mg/l final concentration) and CMPM Group (final concentration of 50, 10, 2, 0.4, 0.08, 0.016, 0.0032 mg/l), 3 wells for every group. Except the Control Group, the other groups are prepared by following method: placing the monolayer myocardium cell on center of culture plate on low glucose medium (containing Verapamil or CMPM with corresponding concentration), then placing the culture plate into the vacuum drying machine, filling nitrogen, and hermetically culturing, causing myocardial injury after oxygen lack for 15 hours, then being cultured for 1 hour by high glucose DMEM medium (95% atmosphere and 5% CO2) to cause reoxygention injury. Measuring the absorbance value at 540 nm by using MTT method, and the same as above, calculating the protective rate to figure out EC50.

COc1ccc(CCN(C)CCCC(C#N)(c2ccc(OC)c(OC)c2)C(C)C)cc1OC (stereo not shown) [Positive Control Group, Verapamil, reference compound]
MIS (myocardial infarct size) ([1]; ischemic area weight/whole heart weight): 4.19 ± 0.70 % | CK ([1]; rat serum): 2.087 ± 0.432 U/ml | LDH ([1]; rat serum): 7376.09 ± 784.64 U/L | MDA ([1]; rat serum): 4.755 ± 0.718 nmol/mL | SOD ([1]; rat serum): 135.63 ± 7.878 U/ml | CK ([2]; rat serum): 1.777 ± 0.389 U/ml | LDH ([2]; rat serum): 6791.96 ± 570.85 U/L | MDA ([2]; rat serum): 4.960 ± 0.338 nmol/mL | SOD ([2]; rat serum): 140.36 ± 14.00 U/ml | MIS (myocardial infarct size) [2]: 4.07 ± 1.56 % | % (protective rate) ([3]; Plate 1, Dosage 0.08 mg/L): 31.53% | A540 ([3]; Plate 1, Dosage 0.08 mg/L): 0.694 ± 0.110 | % (protective rate) ([3]; Plate 1, Dosage 0.4 mg/L): 50.23% | A540 ([3]; Plate 1, Dosage 0.4 mg/L): 0.714 ± 0.021 | % (protective rate) ([3]; Plate 1, Dosage 2 mg/L): 46.83% | A540 ([3]; Plate 1, Dosage 2 mg/L): 0.710 ± 0.099 | % (protective rate) ([3]; Plate 2, Dosage 0.08 mg/L): 30.45% | A540 ([3]; Plate 2, Dosage 0.08 mg/L): 0.749 ± 0.031 | % (protective rate) ([3]; Plate 2, Dosage 0.4 mg/L): 30.29% | A540 ([3]; Plate 2, Dosage 0.4 mg/L): 0.749 ± 0.050 | % (protective rate) ([3]; Plate 2, Dosage 2 mg/L): 46.68% | A540 ([3]; Plate 2, Dosage 2 mg/L): 0.767 ± 0.045 | % (protective rate) ([3]; Plate 3, Dosage 0.08 mg/L): 30.09% | A540 ([3]; Plate 3, Dosage 0.08 mg/L): 0.755 ± 0.021 | % (protective rate) ([3]; Plate 3, Dosage 0.4 mg/L): 37.28% | A540 ([3]; Plate 3, Dosage 0.4 mg/L): 0.770 ± 0.012 | % (protective rate) ([3]; Plate 3, Dosage 2 mg/L): 36.18% | A540 ([3]; Plate 3, Dosage 2 mg/L): 0.768 ± 0.013 | % (protective rate) ([4]; Plate 1, Dosage 0.08 mg/L): 14.16% | A540 ([4]; Plate 1, Dosage 0.08 mg/L): 0.524 ± 0.036 | % (protective rate) ([4]; Plate 1, Dosage 0.4 mg/L): 20.15% | A540 ([4]; Plate 1, Dosage 0.4 mg/L): 0.541 ± 0.029 | % (protective rate) ([4]; Plate 1, Dosage 2 mg/L): 12.87% | A540 ([4]; Plate 1, Dosage 2 mg/L): 0.520 ± 0.060 | % (protective rate) ([4]; Plate 2, Dosage 0.08 mg/L): 23.85% | A540 ([4]; Plate 2, Dosage 0.08 mg/L): 0.553 ± 0.031 | % (protective rate) ([4]; Plate 2, Dosage 0.4 mg/L): 33.18% | A540 ([4]; Plate 2, Dosage 0.4 mg/L): 0.579 ± 0.028 | % (protective rate) ([4]; Plate 2, Dosage 2 mg/L): 29.63% | A540 ([4]; Plate 2, Dosage 2 mg/L): 0.569 ± 0.029 | % (protective rate) ([4]; Plate 3, Dosage 0.08 mg/L): 30.62% | A540 ([4]; Plate 3, Dosage 0.08 mg/L): 0.787 ± 0.020 | % (protective rate) ([4]; Plate 3, Dosage 0.4 mg/L): 35.44% | A540 ([4]; Plate 3, Dosage 0.4 mg/L): 0.795 ± 0.022 | % (protective rate) ([4]; Plate 3, Dosage 2 mg/L): 41.37% | A540 ([4]; Plate 3, Dosage 2 mg/L): 0.805 ± 0.018
